From US20230233650A1, “NOVEL FATTY ACID MODIFIED UROCORTIN 2 DERIVATIVES AND THE USES THEREOF” (Novo Nordisk A/S, priority 2021, published 2023)
Read-outs that look alike come from different tables or passages of the source. Numbered stars: 1 amine (or outer) side, 2 acyl side, 3 side chain; on linkers, the order of the positions; unused ones are H or OH. Side chains are listed from the residue outwards. Ends that are not written are not given here. Peptide text beside a SMILES is read from it. * marks the point of attachment. C20 diacid = O=C(O)CCCCCCCCCCCCCCCCCCC(=O)*; γGlu = O=C(O)[C@H](CCC(=O)[*:2])N[*:1]; AEEA = NCCOCCOCC(=O)O

Tests used:
Human CRF1 receptor = target: T1, Human CRF1 receptor (Homo sapiens, UniProt P34998); experiment: CRF1 receptor binding, scintillation proximity assay (SPA); conditions: displacement of [125I]-Sauvagine, CHO-K1 cell membranes
T1 construct: host or cells: CHO-K1 (membrane preparation)
T1 sequence (P34998 24-415): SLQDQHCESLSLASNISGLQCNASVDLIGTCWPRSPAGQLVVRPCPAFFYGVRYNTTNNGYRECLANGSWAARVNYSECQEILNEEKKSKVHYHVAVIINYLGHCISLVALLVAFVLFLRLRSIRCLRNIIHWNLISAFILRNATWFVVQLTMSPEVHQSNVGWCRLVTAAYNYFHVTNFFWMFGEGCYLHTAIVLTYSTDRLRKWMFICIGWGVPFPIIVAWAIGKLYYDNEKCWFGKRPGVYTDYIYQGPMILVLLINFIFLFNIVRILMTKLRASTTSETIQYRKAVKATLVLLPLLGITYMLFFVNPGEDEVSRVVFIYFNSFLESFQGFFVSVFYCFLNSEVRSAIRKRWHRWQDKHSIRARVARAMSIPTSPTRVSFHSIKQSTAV
Protocol: (§1) The purpose of this example was to test the in vitro binding of the compounds of the invention to receptor subtypes CRF1 and CRF2. The in vitro binding of the compounds was determined in a scintillation proximity assay (SPA) as described below. The native, human Ucn1 and Ucn2 peptides are included as references. Scintillation Proximity Assay: […] Both cell lines were cultured at 37° C. in a humidified atmosphere with 5% CO2. […] Membranes were prepared by the following protocol: cultured cells were washed twice with cold Dulbecco’s phosphate buffered saline and detached using TrypLE™ (ThermoFisher) and transferred to tubes and centrifuged for 5 minutes at 1000 g at +4° C. Pellets were resuspended in ice cold homogenization buffer (20 mM Hepes pH 7.1, 5 mM MgCl2, 1 mg/ml Bacitracin with 2 complete EDTA-free protease inhibitor cocktail tablets/50 ml (Roche)) and then homogenized for 30 seconds using a Ultra-Turrax T25 tissue homogenizer (IKA) at medium speed. The homogenate was centrifuged at 35,000 g for 15 minutes at +4° C. using an ultracentrifuge, and the supernatant was discarded, and fresh homogenization buffer was added. Homogenization of the pellet was repeated a total of three times. The final pellet was resuspended in a few millilitres of homogenization buffer and protein concentration was determined using the Bradford method. The membrane preparation was transferred to cryotubes, and the aliquots were stored at -80° C. Each membrane preparation was subsequently titrated to give an appropriate window in the assay. Test procedure: […] Plates were sealed and incubated at 25° C. for 2 hours in a plate shaker set at 400 rpm and thereafter centrifuged at 1500 rpm for 10 minutes. SPA plates were let to stand at room temperature for about 16 hours prior to reading on microplate scintillation counter. Displacement of radioligand was measured as reduction in luminescence, and IC50 values were calculated by nonlinear regression analysis of four parameter sigmoidal dose-response curves.

Human CRF2 receptor = target: T2, Human CRF2 receptor (Homo sapiens, UniProt Q13324); experiment: CRF2 receptor binding, scintillation proximity assay (SPA); conditions: displacement of [125I]-Sauvagine, CHO-K1 cell membranes
T2 construct: host or cells: CHO-K1 (membrane preparation)
T2 sequence (Q13324 1-411): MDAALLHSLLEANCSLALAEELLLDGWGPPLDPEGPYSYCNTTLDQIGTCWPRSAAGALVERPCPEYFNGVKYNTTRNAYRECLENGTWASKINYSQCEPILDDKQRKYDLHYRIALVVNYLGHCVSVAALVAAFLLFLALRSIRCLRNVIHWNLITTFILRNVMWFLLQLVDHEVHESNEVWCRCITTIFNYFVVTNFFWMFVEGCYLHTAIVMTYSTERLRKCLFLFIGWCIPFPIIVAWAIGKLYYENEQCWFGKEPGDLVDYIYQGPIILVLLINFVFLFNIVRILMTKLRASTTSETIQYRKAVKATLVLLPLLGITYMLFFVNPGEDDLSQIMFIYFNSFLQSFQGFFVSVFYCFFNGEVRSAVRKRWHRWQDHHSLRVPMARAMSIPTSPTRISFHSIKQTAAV
Protocol: as §1

[1] = Physical stability of liquid formulation (visible particles, turbidity); assay type: physicochemical; conditions: 8 mM sodium phosphate; for Particle formation onset: pH 7.4, 31-37 mg/mL (Compound 7: 21 mg/mL), 37° C., 2 weeks, daily rotation
Protocol: The purpose of the study was to evaluate the physical stability of a liquid pharmaceutical formulation comprising test compound. The physical stability was determined as the formation of visible particles and the change in turbidity over time.
Test procedures: Test compound was dissolved in 8 mM sodium phosphate, pH 7.4 to a concentration of 31-37 mg/mL in vials (except for Compound 7 which was dissolved to a concentration of 21 mg/mL and Compound 5 which was not soluble at concentrations of ≥20 mg/mL). The vials were incubated at 37° C. for 2 weeks. Every day the vials were rotated end-to-end for 1 minute, 30 rounds. Every second day the vials were placed in front of a black background with strong LED light (Schott light source, KL2500) illuminating from below and a picture for analysis was taken.
Analysis: “Average pixel intensity” is a measure of turbidity of a liquid solution. It was measured by taking the average pixel intensity, ranging from 0 (black) to 255 (white), in a small square of a digital image of the glass vials containing a liquid solution and results are reported in FIG. 1. “Particle density” is a measure of visible particles in a liquid solution. It was measured by counting the number of visible particles in a region of a digital image of the glass vial containing a liquid solution and dividing with the area of the region and the results are reported in FIG. 2.

[2] = for Average purity loss per week: 8 mM sodium phosphate buffer pH 7.4, 0.7-1.1 mM, 37° C., 0-4 weeks, UPLC
Excerpt: The purpose of the study was to evaluate the chemical stability of a liquid pharmaceutical formulation comprising test compound. The chemical stability was be determined by measuring test compound purity loss (i.e. reduction of test compound relative to other species in the sample) over time using ultra-performance liquid chromatography (UPLC) coupled to an ultra-violet detector operated in reversed-phase mode.
Equipment and analysis conditions: Acquity UPLC I-Class instrument (Waters, Milford, US) together with either an Acquity UPLC CSH Fluorophenyl column (PN. 186005353 from Waters, Milford, US) or an Acquity Premier CSH column (PN. 186009462 from Waters, Milford, US), both having the dimensions 150 × 2.1 mm, particle diameter 1.7 µm and kept at 30° C., was used for the test. Mobile phase A was 0.1% vol/vol trifluoroacetic acid in water and mobile phase B was 0.09% vol/vol trifluoroacetic acid in acetonitrile. The flow rate was 0.35 mL/min while elution was done with a linear gradient of 26% to 40% mobile phase B over 50 min for the UPLC Fluorophenyl column and 30% to 50% mobile phase B over 50 min for the Premier CSH column. Detection was performed at UV 214 nm with 2 µL of volume injected from each sample.
Samples were kept in glass vials for quiescent storage in a 37° C. incubation chamber and subjected to analysis after 0, 1, 2, 3 and 4 weeks. Samples were analysed using UPLC (as described above) with chromatogram peak area as a measure of test compound concentration. Purity was determined at each timepoint as the fraction, given in %, of test compound relative to other species present in the sample. The purity loss over time is the relative difference in % test compound between timepoints and it is reported in Table 7 as the average from the five timepoints.

Row | Compound | IC50 (Human CRF1 receptor) [nM] | IC50 (Human CRF2 receptor) [nM] | Particle formation onset [1] | Average purity loss per week [2] | other results
1 | CC[C@H](C)[C@H](NC(=O)[C@H](CCCNC(=N)N)NC(=O)[C@H](C)NC(=O)[C@H](CC(N)=O)NC(=O)[C@@H](NC(=O)[C@@H](NC(=O)[C@H](C)NC(=O)[C@H](CCC(N)=O)NC(=O)[C@H](CCC(=O)O)NC(=O)[C@H](CCCNC(=N)N)NC(=O)[C@H](C)NC(=O)[C@H](C)NC(=O)[C@H](CCCNC(=N)N)NC(=O)[C@H](C)NC(=O)[C@H](CCCNC(=N)N)NC(=O)[C@H](C)NC(=O)[C@H](CCC(N)=O)NC(=O)[C@H](CCC(=O)O)NC(=O)[C@H](CC(C)C)NC(=O)[C@H](CC(C)C)NC(=O)[C@@H](NC(=O)[C@H](CCC(N)=O)NC(=O)[C@H](CC(C)C)NC(=O)[C@H](CC(C)C)NC(=O)CNC(=O)[C@@H](NC(=O)[C@@H]1CCCN1C(=O)[C@@H](NC(=O)[C@H](CC(=O)O)NC(=O)[C@H](CC(C)C)NC(=O)[C@H](CO)NC(=O)[C@H](CC(C)C)NC(=O)[C@@H](NC(=O)[C@@H](NC(=O)[C@@H](N)CCCCNC(=O)COCCOCCNC(=O)COCCOCCNC(=O)CC[C@H](NC(=O)CC[C@H](NC(=O)CC[C@H](NC(=O)CCCCCCCCCCCCCCCCCCC(=O)O)C(=O)O)C(=O)O)C(=O)O)[C@@H](C)CC)C(C)C)C(C)C)[C@@H](C)CC)[C@@H](C)CC)[C@@H](C)O)[C@@H](C)O)C(=O)N[C@@H](CCC(=O)O)C(=O)N[C@@H](C)C(=O)N[C@@H](CCCNC(=N)N)C(=O)N[C@H](C(N)=O)C(C)C [Compound 9] (H-K([AEEA-AEEA-γGlu-γGlu-γGlu-C20 diacid])IVLSLDVPIGLLQILLEQARARAAREQATTNARIEARV-NH2) | > 1000 | 897 | – | – | –
2 | DNPSLSIDLTFHLLRTLLELARTQSQRERAEQNRIIFDSV-NH2 [Compound 1] | – | 0.12 | – | – | –
3 | CC[C@H](C)[C@H](NC(=O)[C@H](CCC(=O)O)NC(=O)[C@H](C)NC(=O)[C@H](CC(N)=O)NC(=O)[C@@H](NC(=O)[C@@H](NC(=O)[C@H](C)NC(=O)[C@H](CCC(N)=O)NC(=O)[C@H](CCC(=O)O)NC(=O)[C@H](CCCNC(=N)N)NC(=O)[C@H](C)NC(=O)[C@H](C)NC(=O)[C@H](CCCNC(=N)N)NC(=O)[C@H](C)NC(=O)[C@H](CCCNC(=N)N)NC(=O)[C@H](C)NC(=O)[C@H](CCC(N)=O)NC(=O)[C@H](CCC(=O)O)NC(=O)[C@H](CC(C)C)NC(=O)[C@H](CC(C)C)NC(=O)[C@@H](NC(=O)[C@H](CCC(N)=O)NC(=O)[C@H](CC(C)C)NC(=O)[C@H](CC(C)C)NC(=O)CNC(=O)[C@@H](NC(=O)[C@@H]1CCCN1C(=O)[C@@H](NC(=O)[C@H](CC(=O)O)NC(=O)[C@H](CC(C)C)NC(=O)[C@H](CO)NC(=O)[C@H](CC(C)C)NC(=O)[C@@H](NC(=O)[C@@H](NC(=O)[C@@H](N)CCCCNC(=O)COCCOCCNC(=O)COCCOCCNC(=O)CC[C@H](NC(=O)CC[C@H](NC(=O)CC[C@H](NC(=O)CCCCCCCCCCCCCCCCCCC(=O)O)C(=O)O)C(=O)O)C(=O)O)[C@@H](C)CC)C(C)C)C(C)C)[C@@H](C)CC)[C@@H](C)CC)[C@@H](C)O)[C@@H](C)O)C(=O)N[C@@H](CCC(=O)O)C(=O)N[C@@H](C)C(=O)N[C@@H](CCCNC(=N)N)C(=O)N[C@H](C(N)=O)C(C)C [Compound 10] (H-K([AEEA-AEEA-γGlu-γGlu-γGlu-C20 diacid])IVLSLDVPIGLLQILLEQARARAAREQATTNAEIEARV-NH2) | > 1000 | 569 | – | – | –
4 | CC[C@H](C)[C@H](NC(=O)[C@H](CCC(=O)O)NC(=O)[C@H](C)NC(=O)[C@H](CC(N)=O)NC(=O)[C@@H](NC(=O)[C@@H](NC(=O)[C@H](C)NC(=O)[C@H](CCC(N)=O)NC(=O)[C@H](CCC(=O)O)NC(=O)[C@H](CCCNC(=N)N)NC(=O)[C@H](C)NC(=O)[C@H](C)NC(=O)[C@H](CCCNC(=N)N)NC(=O)[C@H](C)NC(=O)[C@H](CCCNC(=N)N)NC(=O)[C@H](C)NC(=O)[C@H](CCC(N)=O)NC(=O)[C@H](CCC(=O)O)NC(=O)[C@H](CC(C)C)NC(=O)[C@H](CC(C)C)NC(=O)[C@@H](NC(=O)[C@H](CCC(N)=O)NC(=O)[C@H](CC(C)C)NC(=O)[C@H](CC(C)C)NC(=O)CNC(=O)[C@@H](NC(=O)[C@@H]1CCCN1C(=O)[C@@H](NC(=O)[C@H](CC(=O)O)NC(=O)[C@H](CC(C)C)NC(=O)[C@H](CO)NC(=O)[C@H](CC(C)C)NC(=O)[C@@H](NC(=O)[C@@H](N)CCCCNC(=O)COCCOCCNC(=O)COCCOCCNC(=O)CC[C@H](NC(=O)CC[C@H](NC(=O)CC[C@H](NC(=O)CCCCCCCCCCCCCCCCCCC(=O)O)C(=O)O)C(=O)O)C(=O)O)C(C)C)C(C)C)[C@@H](C)CC)[C@@H](C)CC)[C@@H](C)O)[C@@H](C)O)C(=O)N[C@@H](CC(C)C)C(=O)N[C@@H](CCC(=O)O)C(=O)N[C@@H](CCCNC(=N)N)C(=O)N[C@H](C(N)=O)C(C)C [Compound 11] (H-K([AEEA-AEEA-γGlu-γGlu-γGlu-C20 diacid])VLSLDVPIGLLQILLEQARARAAREQATTNAEILERV-NH2) | > 1000 | 196 | – | – | –
5 | N{ε}-[[[(4S)-4-carboxy-4-[[(4S)-4-carboxy-4-[[(4S)-4-carboxy-4-(19-carboxynonadecanoylamino)butanoyl]amino]butanoyl]amino]butanoyl]amino]ethoxy]ethoxy]a cetyl]amino]ethoxy]ethoxy]acetyl]Lys-[Glu33]-hUcn2 [Compound 6] | – | – | 1 days | 0.90% | –

Second part, led by results:

Row | IC50 (Human CRF1 receptor) [nM] | IC50 (Human CRF2 receptor) [nM] | Particle formation onset [1] | Average purity loss per week [2] | Compound | other results
6 | – | – | Not soluble | Not soluble | N{ε}-[[[(4S)-4-carboxy-4-[[(4S)-4-carboxy-4-[[(4S)-4-carboxy-4-(19-carboxynonadecanoylamino)butanoyl]amino]butanoyl]amino]butanoyl]amino]ethoxy]ethoxy]a cetyl]amino]ethoxy]ethoxy]acetyl]Lys-hUcn2 [Compound 5] | Solubility (not soluble at concentrations of) ([1]; pH 7.4): < 20 mg/mL; Solubility (not soluble at concentrations of) ([2]; pH 7.4): < 700 µM
7 | – | – | – | 2.43% | N{ε}-[[[(4S)-4-carboxy-4-[[(4S)-4-carboxy-4-[[(4S)-4-carboxy-4-(19-carboxynonadecanoylamino)butanoyl]amino]butanoyl]amino]butanoyl]amino]ethoxy]ethoxy]a cetyl]amino]ethoxy]ethoxy]acetyl]Lys-[Glu37]-hUcn2 [Compound 8] | –
8 | – | – | 7 days | 3.95% | N{ε}-[[[(4S)-4-carboxy-4-[[(4S)-4-carboxy-4-[[(4S)-4-carboxy-4-(19-carboxynonadecanoylamino)butanoyl]amino]butanoyl]amino]butanoyl]amino]ethoxy]ethoxy]a cetyl]amino]ethoxy]ethoxy]acetyl]Lys-[Glu36]-hUcn2 [Compound 7] | –
